Entries after “also recorded” stand apart in the source; their conditions may differ.

The target in assay [1] is T1, Human recombinant ATG7 protein (Homo sapiens, UniProt O95352).
T1 construct: purchased R&D Systems
T1 sequence (O95352 1-703): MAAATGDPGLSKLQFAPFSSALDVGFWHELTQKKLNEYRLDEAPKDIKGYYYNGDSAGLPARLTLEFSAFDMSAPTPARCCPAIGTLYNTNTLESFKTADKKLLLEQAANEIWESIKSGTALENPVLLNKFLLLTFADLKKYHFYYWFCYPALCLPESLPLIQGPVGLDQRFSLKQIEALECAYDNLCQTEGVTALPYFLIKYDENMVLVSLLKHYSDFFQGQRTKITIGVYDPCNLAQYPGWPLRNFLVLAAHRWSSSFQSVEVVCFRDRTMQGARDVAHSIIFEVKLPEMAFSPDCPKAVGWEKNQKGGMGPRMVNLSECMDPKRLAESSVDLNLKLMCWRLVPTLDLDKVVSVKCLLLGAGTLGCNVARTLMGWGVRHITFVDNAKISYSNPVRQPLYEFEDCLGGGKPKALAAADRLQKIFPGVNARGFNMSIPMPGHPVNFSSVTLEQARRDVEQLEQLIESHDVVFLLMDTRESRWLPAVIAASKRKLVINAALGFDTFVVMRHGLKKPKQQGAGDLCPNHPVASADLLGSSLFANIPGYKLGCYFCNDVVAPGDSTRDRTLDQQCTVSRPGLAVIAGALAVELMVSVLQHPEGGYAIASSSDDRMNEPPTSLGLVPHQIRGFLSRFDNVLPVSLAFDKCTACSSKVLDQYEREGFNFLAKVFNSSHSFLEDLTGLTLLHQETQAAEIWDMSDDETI
Description: Labeling of ATG7 with probes in vitro (click chemistry, in-gel fluorescence). Format: binding. The note with it: 3 hours; for labeling efficiency of ATG7 (intensity of the fluorescent bands): catalytically active ATG7 (0.5 μM), increasing probe concentrations, click chemistry, in-gel fluorescence. On the procedure:
Following the synthesis, we incubated probes 1, 2, and 3 with catalytically active ATG7 (0.5 μM) for 3 hours. Then the click chemistry was followed to measure the levels of small molecule labeled ATG7. The intensity of the fluorescent bands was interpreted as the labeling efficiency of the probes.
(§1) Subsequently, increasing concentrations of compounds 4 and 5 were incubated with catalytically active ATG7 (0.5 μM) for 3 hours. […] We also conducted an ATP-competition reaction to test if compounds 4 and 5 utilize the ATP binding site for the covalent labeling. ATG7 was incubated with compound 4 or 5 in the presence or absence of ATP (100 μM) (FIG. 5B).
(§2) General Information. Human recombinant ATG7 protein was purchased from R&D Systems and used without further purification. In-gel fluorescence imaging was performed on a Typhoon 9600 (GE Healthcare).
(§3) Labeling of ATG7 with probes 1, 2, 3, 4, and 5 in vitro. ATG7 (0.4 μM) and TCEP (100 μM) in buffer containing HEPES (25 mM, pH 7.6), NaCl (50 mM), and MgCl2 (4 mM) were treated with increasing concentrations of each probe at room temperature (10 μL total volume) for 2 h. The reaction mixtures were treated with 1 μl of 10% SDS followed by 4 μL of click reaction mixture: CuSO4 (final conc. 1 mM), TBTA (final conc. 100 μM), sodium ascorbate (final conc. 1 mM), and Azide-Fluor-585 (final conc. 100 μM). The reaction mixture was incubated for 30 min at r.t., followed by the addition of 3 μL of 6× Laemmli loading buffer, and resolved by 12% SDS-PAGE. The bottom of the gel was cut to eliminate the excessive amount of Azide-Fluor-585. The acrylamide gel was kept in 50% ddH2O, 40% EtOH and 10% Acetic acid solution until it was subjected to the in-gel scanning fluorescence imaging (Typhoon 9600, GE Healthcare). The proteins in the gel were then visualized with Instant Blue™.

In the next assay the test system is A549 cells. Description: In-gel fluorescent detection of probe-labeled proteomes in live A549 cells. Format: cell-based. To be noted: 10 μM, 2 hours; for cell permeability and labeling of proteins in live cells: rhodamine azide click, in-gel fluorescence. On the procedure:
We investigated the labeling of proteins with the developed probes inside of live cells. To this end, A549 cells were treated with 10 μM of compounds 1, 2, 3, and 5 for 2 hours. Then, the lysate was treated with click reaction mixtures containing rhodamine azide.
A549 cells were grown in RPMI medium (Life Technologies) supplemented with 10% fetal bovine serum in 6-well plates. Confluent A549 cells (9.6 cm^2 per condition in 6-well plates) were washed with Dulbecco's Phosphate-Buffered Saline (DPBS, 3 mL) and the growth medium was replaced with RPMI medium containing each probe. After 2 h incubation time at 37° C., cells were washed with DPBS (3 mL). 160 μL of lysis buffer containing Tris HCl (25 mM, pH 7.6), NaCl (150 mM), 1% NP40, 1% sodium deoxycholate, 0.1% SDS, and protease inhibitor cocktail for mammalian cells (Sigma-Aldrich, 1:100 v/v) was added to each well of the 6-well plates, and cells were lysed on ice for 10 min. The gathered lysate was flown through 21G syringe for the complete breakdown. The complete lysis of the cells was monitored using Carl Zeiss Primo Vert inverted microscope. 10 μL of each cell lysate was treated with sodium dodecyl sulfate (final concentration 1%), followed by the incubation with the click chemistry reagents (CuSO4 (final conc. 1 mM), TBTA (final conc. 100 μM), sodium ascorbate (final conc. 1 mM) and Azide-Fluor-585 (final conc. 100 μM) for 30 min. Proteins were resolved by 10% SDS-PAGE, and subjected to in-gel scanning fluorescence imaging to visualize the covalent adducts. Total proteins in the gel were then visualized by staining the gel with Instant Blue™.

Assay [2] addresses T1, Human recombinant ATG7 protein. Kind of assay: ATP-competition reaction for covalent labeling of ATG7. Format: binding. The note with it: ATP (100 μM) present or absent. On the procedure: as §1, §2
as §3, with “The bottom of the gel was cut to eliminate the excessive amount of Azide-Fluor-585.” left out, “The proteins in the gel were then visualized with Instant Blue™.” left out

In the case of `C#CCCCCNS(=O)(=O)C=C` [Compound 1], in assay [1], the “labeling efficiency of ATG7 (intensity of the fluorescent bands)” value (“labeling efficiency of ATG7” below) was “inefficient labeling”. Besides, the “labeling of ATG7 at 10 μM concentration” value in assay [1] (probe 10 μM, ATG7 (0.5 μM)) was “little labeling”. Further, the “cell permeability and labeling of proteins in live cells” value (“cell permeability and labeling” for short) with A549 cells is “cell permeable and able to label proteins in live cells”.
Consider `C#CCNc1ncnc2c1ncn2[C@@H]1O[C@H](CNS(=O)(=O)C=C)[C@@H](O)[C@H]1O` [Compound 2], for which, in the assay with A549 cells, the “cell permeability and labeling” value was “cell permeable and able to label proteins in live cells”.
As to `C#Cc1cccc(Nc2ncnc3c2ncn3[C@@H]2O[C@H](CNS(=O)(=O)C=C)[C@@H](O)[C@H]2O)c1` [Compound 3], the “labeling efficiency of ATG7” value in assay [1] was “higher labeling efficiency than 2; also recorded: much higher labeling efficiency than propargyl alkyne containing probes; also recorded: most potently labels ATG7”. Further, the “cell permeability and labeling” value with A549 cells is “cell permeable and able to label proteins in live cells”.
For the molecule `C#CCNc1ncnc2c1ncn2[C@@H]1O[C@H](COS(=O)(=O)C=C)[C@@H](O)[C@H]1O` [Compound 4], the “labeling of ATG7 in the presence of ATP compared to ATP free conditions” value in assay [2] is recorded as “significantly dropped; also recorded: utilize ATP binding site for the ATG7 labeling”.
Regarding `C#Cc1cccc(Nc2ncnc3c2ncn3[C@@H]2O[C@H](COS(=O)(=O)C=C)[C@@H](O)[C@H]2O)c1` [Compound 5], the “labeling efficiency of ATG7” value in assay [1] is given as “stronger intensity of the fluorescent bands than compound 4-treated ATG7; also recorded: much higher labeling efficiency than propargyl alkyne containing probes; also recorded: greater labeling potency than compound 4”. For the same molecule, the “labeling of ATG7 in the presence of ATP compared to ATP free conditions” value in assay [2] is reported as “significantly dropped; also recorded: utilize ATP binding site for the ATG7 labeling”. In the assay on A549 cells, the “off-targets (non-specifically labeled proteins) in live cells” value was “more numbers of off-targets when compared with compound 3; also recorded: strongest off target effects”; the “cell permeability and labeling” value is “cell permeable and able to label proteins in live cells”.

(Values after patent US10376515B2, “Analogs of adenosine monophosphate (AMP) as inhibitors of ubiquitin-like modifier-activating enzyme ATG7” (Northwestern University, priority 2016, dated 2019).)
